Test results: patent US8541572B2

Test system: TNF-α production in LPS-stimulated human whole blood
Assay: Inhibition of TNF-α production from human whole blood (hWBA)
Format: cell-based
Conditions: Homo sapiens, IC50 for TNF-α production, LPS-stimulated human whole blood; read-out: hWBA

Row | Compound | IC50 [nM]
1 | COc1ccc2c(c1)C(=O)N(C[C@@]1(C#Cc3ccc(C4(C)NC(=O)NC4=O)cc3C)NC(=O)NC1=O)C2 (stereo partly shown) [Compound 2257] | 490
2 | COc1ccc2c(c1)C(=O)N(C[C@@]1(C#Cc3ccc(-c4cn[nH]c4N)cc3)NC(=O)NC1=O)C2 [Compound 2296] | 236
3 | COc1ccc2c(c1)C(=O)N(C[C@@]1(C#Cc3ccc4oc(C5(C)NC(=O)NC5=O)cc4c3)NC(=O)NC1=O)C2 (stereo partly shown) [Compound 909] | 292
4 | COc1ccc2c(c1)C(=O)N(C[C@@]1(C#Cc3ccc(C(C)(C)C(N)=O)cc3)NC(=O)NC1=O)C2 [Compound 2262] | 517
5 | COc1ccc2c(c1)C(=O)N(C[C@@]1(C#Cc3ccc(C4(C5CCC5)NC(=O)NC4=O)cc3)NC(=O)NC1=O)C2 (stereo partly shown) [Compound 906] | 382
6 | CCN1CCN(C(=NO)c2cncc(C#C[C@]3(CN4Cc5ccc(OC)cc5C4=O)NC(=O)NC3=O)c2)CC1 [Compound 923] | 435
7 | COc1ccc2c(c1)C(=O)N(CC1(C#Cc3cccnc3NCCN(C)C)NC(=O)NC1=O)C2 (stereo not shown) [Compound 2286] | 2000

Same assay, conditions: Homo sapiens, IC50 for inhibition of TNF-α production, LPS-stimulated human whole blood; read-out: hWBA

Row | IC50 [nM] | Compound
8 | 2560 | COc1ccc2c(c1F)C(=O)N(C[C@@]1(C#Cc3ccc(-c4cccc(N5CCOCC5)n4)c(F)c3)NC(=O)NC1=O)C2 [Compound 996]
9 | 417 | COc1ccc2c(c1)C(=O)N(C[C@@]1(C#Cc3cc(C(N)=O)ccc3C)NC(=O)NC1=O)C2 [Compound 2220]
10 | 514 | COc1ccc2c(c1)C(=O)N(C[C@@]1(C#Cc3ccc(N4CCCCC4)nc3)NC(=O)NC1=O)C2 [Compound 1509]
11 | 204 | CCN1CCN(C(=NO)c2cnc(C#C[C@]3(CN4Cc5ccc(OC)cc5C4=O)NC(=O)NC3=O)c(OC)c2)CC1 [Compound 1923]
12 | 651 | CSc1ccc2c(c1)C(=O)N(C[C@@]1(C#Cc3cccnc3)NC(=O)NC1=O)C2 [Compound 312]
13 | 3130 | COc1ccc2c(c1)C(=O)N(C[C@@]1(C#Cc3ccc(CN4CCN(c5nccs5)CC4)cc3)NC(=O)NC1=O)C2 [Compound 980]
14 | 255 | COc1ccc2c(c1F)C(=O)N(C[C@@]1(C#Cc3ccc(CN4CCN(C5CCCCC5)CC4)cc3)NC(=O)NC1=O)C2 [Compound 982]
15 | 119 | COc1ccc2c(c1F)C(=O)N(C[C@@]1(C#Cc3ccc(-c4nc(-c5cccnc5)ccc4O)c(F)c3)NC(=O)NC1=O)C2 [Compound 1002]
16 | 776 | COc1ccc2c(c1)C(=O)N(C[C@@]1(C#Cc3cncc(-c4ccc(C(N)=O)o4)c3)NC(=O)NC1=O)C2 [Compound 2213]
17 | 538 | COc1ccc2c(c1)C(=O)N(C[C@@]1(C#Cc3ccc(-n4cn[nH]c4=O)cc3)NC(=O)NC1=O)C2 [Compound 1914]
18 | 401 | COc1ccc2c(c1)C(=O)N(C[C@@]1(C#Cc3ccc(C(=O)N4CCC(N5CCCCC5)CC4)cc3)NC(=O)NC1=O)C2 [Compound 963]

Second part, the compound before the results:

Row | Compound | IC50 [nM]
19 | COc1ccc2c(c1)C(=O)N(C[C@@]1(C#Cc3cc(Br)ccc3O)NC(=O)NC1=O)C2 [Compound 2229] | 10000
20 | COc1ccc2c(c1)C(=O)N(C[C@@]1(C#Cc3cnc4ccccc4c3CO)NC(=O)NC1=O)C2 [Compound 2219] | 8900

Same assay, conditions: IC50 for TNF-α production, LPS-stimulated human whole blood; read-out: hWBA

Row | IC50 [nM] | Compound
21 | 2260 | COc1ccc2c(c1)C(=O)N(C[C@@]1(C#Cc3cccnc3-c3ccncc3)NC(=O)NC1=O)C2 [Compound 2291]
22 | 47 | COc1ccc2c(c1)C(=O)N(C[C@@]1(C#Cc3ccc(C(=NO)N4CCCN(C(C)C)CC4)cc3)NC(=O)NC1=O)C2 [Compound 931]
23 | 2540 | COc1ccc2c(c1)C(=O)N(C[C@@]1(C#Cc3cccnc3-c3c(C)nn(C)c3C)NC(=O)NC1=O)C2 [Compound 2264]
24 | 327 | COc1ccc2c(c1)C(=O)N(C[C@@]1(C#Cc3ccc(C(=NO)N4[C@H](C)CNC[C@@H]4C)cc3)NC(=O)NC1=O)C2 [Compound 2294]
25 | 86 | COc1ccc2c(c1)C(=O)N(C[C@@]1(C#Cc3ccc(C(=NO)N4CCC(=O)CC4)cc3)NC(=O)NC1=O)C2 [Compound 945]
26 | 1320 | COc1ccc2c(c1)C(=O)N(C[C@@]1(C#Cc3cncc(C(=NO)N4CCCN(C)CC4)c3)NC(=O)NC1=O)C2 [Compound 924]
27 | 72.4 | CCN1CCN(c2ccc(O)c(-c3ccc(C#C[C@]4(CN5Cc6ccc(OC)cc6C5=O)NC(=O)NC4=O)cc3)n2)CC1 [Compound 936]

Continued, compound first:

Row | Compound | IC50 [nM]
28 | COc1ccc2c(c1)C(=O)N(C[C@@]1(C#Cc3ccc(C(=NO)N4CCOCC4)s3)NC(=O)NC1=O)C2 [Compound 952] | 571
29 | COc1ccc2c(c1)C(=O)N(C[C@@]1(C#Cc3ccc(-c4ncccc4O)cc3)NC(=O)NC1=O)C2 [Compound 934] | 117
30 | CCN1CCN(C(CO)c2ccc(C#C[C@]3(CN4Cc5ccc(OC)cc5C4=O)NC(=O)NC3=O)cc2)CC1 (stereo partly shown) [Compound 930] | 504
31 | COc1ccc2c(c1)CCN(C[C@@]1(C#Cc3ccc(C(=NO)N4CCCN(C)CC4)cc3)NC(=O)NC1=O)C2=O [Compound 2317] | 639
32 | COc1ccc2c(c1)C(=O)N(C[C@@]1(C#Cc3cccnc3-c3cncnc3)NC(=O)NC1=O)C2 [Compound 2290] | 1590
33 | COc1ccc2c(c1)C(=O)N(C[C@@]1(C#Cc3ccc4oc(C5(C)NC(=O)NC5=O)c(C)c4c3)NC(=O)NC1=O)C2 (stereo partly shown) [Compound 910] | 545
34 | COc1ccc2c(c1)C(=O)N(C[C@@]1(C#Cc3ccc(C(=NO)N4CCCC4)cc3)NC(=O)NC1=O)C2 [Compound 942] | 641
35 | C#C[C@]1(CN2Cc3ccc(OC)c(F)c3C2=O)NC(=O)NC1=O [Compound 23] | 841
36 | COc1ccc2c(c1)C(=O)N(C[C@@]1(C#Cc3cccnc3)NC(=O)NC1=O)CC2 [Compound 2318] | 10000
37 | COc1ccc2c(c1)C(=O)N(C[C@@]1(C#Cc3ccc(C(=NO)N4CCN(C5CCCCC5)CC4)cc3)NC(=O)NC1=O)C2 [Compound 926] | 76

Same assay, conditions: IC50 for inhibition of TNF-α production, LPS-stimulated human whole blood; read-out: hWBA

Row | IC50 [nM] | Compound
38 | 723 | COc1ccc2c(c1)C(=O)N(C[C@@]1(C#Cc3cc(F)c4c(O)n[nH]c4c3)NC(=O)NC1=O)C2 [Compound 302]
39 | 42.8 | COc1ccc2c(c1)C(=O)N(C[C@@]1(C#Cc3ccc(-c4nc(-c5cnn(C)c5)ccc4OC(=O)C(C)(C)C)cc3)NC(=O)NC1=O)C2 [Compound 990]
40 | 156 | CCN1CCN(Cc2ccc(C#C[C@]3(CN4Cc5ccc(OC)c(F)c5C4=O)NC(=O)NC3=O)cn2)CC1 [Compound 978]
41 | 515 | COc1ccc2c(c1)C(=O)N(C[C@@]1(C#Cc3ncc(C(=NO)N4CCN(c5cnccn5)CC4)cc3OC)NC(=O)NC1=O)C2 [Compound 1924]
42 | 96 | COc1ccc2c(c1F)C(=O)N(C[C@@]1(C#Cc3ccc(-c4ncccc4O)cc3)NC(=O)NC1=O)C2 [Compound 1010]
43 | 7040 | COc1ccc2c(c1)C(=O)N(C[C@@]1(C#Cc3nc(-c4ccc(S(=O)(=O)NC5CC5)cc4)ccc3OC)NC(=O)NC1=O)C2 [Compound 1512]
44 | 935 | COc1ccc2c(c1F)C(=O)N(C[C@@]1(C#Cc3cc(F)cnc3Cl)NC(=O)NC1=O)C2 [Compound 1312]
45 | 766 | COc1ccc2c(c1)C(=O)N(C[C@@]1(C#Cc3ccc(-c4ccc(C)nc4O)nc3)NC(=O)NC1=O)C2 [Compound 1301]
46 | 233 | COc1ccc2c(c1)C(=O)N(C[C@@]1(C#Cc3ccc(C(CN)N4CCC(N)C4)cc3)NC(=O)NC1=O)C2 (stereo partly shown) [Compound 1705]
47 | 39.8 | CCN1CCN(c2ccc(O)c(-c3ccc(C#C[C@]4(CN5Cc6ccc(OC)cc6C5=O)NC(=O)NC4=O)cc3F)n2)CC1 [Compound 976]
48 | 430 | COc1ccc2c(c1)C(=O)N(C[C@@]1(C#Cc3ccc(N(c4cccnc4)C4CCNCC4)nc3)NC(=O)NC1=O)C2 [Compound 2200]
49 | 161 | COc1ccc2c(c1)C(=O)N(C[C@@]1(C#Cc3ccc(Nc4c(NCCN(C)C)c(=O)c4=O)cc3)NC(=O)NC1=O)C2 [Compound 1307]

The next lines start with the compound.

Row | Compound | IC50 [nM]
50 | CCN1CCN(c2cccc(-c3ccc(C#C[C@]4(CN5Cc6ccc(OC)c(F)c6C5=O)NC(=O)NC4=O)cc3F)n2)CC1 [Compound 992] | 808
51 | CCOC(=O)Nc1cncc(C#C[C@]2(CN3Cc4ccc(OC)cc4C3=O)NC(=O)NC2=O)c1 [Compound 2243] | 1230
52 | COc1ccc2c(c1)C(=O)N(C[C@@]1(C#Cc3ccc(-c4ncccc4OC(=O)C(C)(C)C)cc3)NC(=O)NC1=O)C2 [Compound 1008] | 342
53 | COc1ccc2c(c1)C(=O)N(C[C@@]1(C#Cc3ccc(-n4cnc(CCNC(C)=O)c4)cc3)NC(=O)NC1=O)C2 [Compound 1120] | 453
54 | CCN1CCN(C(=O)C2CC(=O)N(c3ccc(C#C[C@]4(CN5Cc6ccc(OC)cc6C5=O)NC(=O)NC4=O)cc3)C2)CC1 (stereo partly shown) [Compound 1319] | 940
55 | COc1ccc2c(c1)C(=O)N(C[C@@]1(C#Cc3ccc(N4CCNC4=O)cc3)NC(=O)NC1=O)C2 [Compound 1150] | 1620
56 | COc1ccc2c(c1)C(=O)N(C[C@@]1(C#Cc3cnc(N4CCC(=O)CC4)nc3N)NC(=O)NC1=O)C2 [Compound 2210] | 1010
57 | COc1ccc2c(c1)C(=O)N(C[C@@]1(C#Cc3cncc(-c4ccc(O)c(-c5cn[nH]c5)n4)c3)NC(=O)NC1=O)C2 [Compound 1707] | 374
58 | COc1ccc2c(c1)C(=O)N(C[C@@]1(C#Cc3ccc(-c4nc(-c5cnn(C)c5)ccc4O)cc3)NC(=O)NC1=O)C2 [Compound 973] | 61
59 | COc1ccc2c(c1)C(=O)N(C[C@@]1(C#Cc3ccc(CCN)cc3)NC(=O)NC1=O)C2 [Compound 2202] | 219
60 | COc1ccc2c(c1)C(=O)N(C[C@@]1(C#Cc3ccc(C(=O)N4CCN(C5CC5)CC4)cc3)NC(=O)NC1=O)C2 [Compound 961] | 1160
61 | CCNc1nnc(-c2ccc(C#C[C@]3(CN4Cc5ccc(OC)cc5C4=O)NC(=O)NC3=O)cc2)o1 [Compound 1920] | 269
62 | COc1ccc2c(c1)C(=O)N(C[C@@]1(C#Cc3ccc(-c4nnc[nH]4)cc3OC)NC(=O)NC1=O)C2 [Compound 2223] | 131
63 | COc1ccc2c(c1)C(=O)N(C[C@@]1(C#Cc3ccc(-c4c(C)n[nH]c4N)cc3)NC(=O)NC1=O)C2 [Compound 1303] | 488
64 | COc1ccc2c(c1)C(=O)N(C[C@@]1(C#Cc3ccc4c(c3)c(N)nn4CCN(C)C)NC(=O)NC1=O)C2 [Compound 705] | 101
